Assay results: ChEMBL document CHEMBL5053528, “Discovery of 2-(Ortho-Substituted Benzyl)-Indole Derivatives as Potent and Orally Bioavailable RORγ Agonists with Antitumor Activity” (J Med Chem, 2021)
One block for each compound: values may come before it.

What was measured:
[1] = AUC (0 to t) in mouse at 1 mg/kg, iv; type: ADME, organism-based; set-up: dose 1 mg/kg, route iv; details: in vivo
[2] = Effects of compound in IFNgamma production in CD3/CD28-stimulated C57BL/6 mouse tumor lymphocytes assessed as increase in IFNgamma production at 10 mg/kg by ELISA (Rvb= 262 +/- 81 pg/ml); type: functional, Lymphocyte
[3] = Effects of compound in IFNgamma production in CD3/CD28-stimulated C57BL/6 mouse tumor lymphocytes assessed as increase in IFNgamma production at 10 mg/kg in combination with anti-mouse PD1 monoclonal antibody at 5 mg/kg by ELISA (Rvb= 1467 +/- 878 pg/ml); type: functional, Lymphocyte
[4] = Drug exposure in tumor of C57BL/6 mouse injected with mouse MC38 cells at 10 mg/kg, po measured 3 hrs post dose on day 25 by LC/MS analysis; type: ADME, organism-based, Neoplasm, MC-38; details: time 25 day, read-out: Drug uptake
[5] = Volume of distribution in dog at 0.5 mg/kg, iv; type: ADME, organism-based, Canis lupus familiaris; details: in vivo
[6] = Effects of compound in IL-17 production in CD3/CD28-stimulated C57BL/6 mouse tumor lymphocytes assessed as increase in IL-17 production at 10 mg/kg in combination with anti-mouse PD1 monoclonal antibody at 5 mg/kg by ELISA (Rvb= 29 +/- 9 pg/ml); type: functional, Lymphocyte
[7] = Clearance in rat at 1 mg/kg, iv; type: ADME, organism-based; details: in vivo
[8] = Half life in rat at 1 mg/kg, iv; type: ADME, organism-based; details: in vivo
MC-38 [9] = test: Antitumor activity against mouse MC38 cells injected C57BL/6 mouse syngenic model assessed as tumor growth inhibition at 10 mg/kg, po administered once daily for 25 days in combination with anti-mouse PD-1 monoclonal antibody at 5 mg/kg, ip relative to control; type: functional; details: C57BL/6, MC-38, 600 h, time 25 day, read-out: TGI
Mus musculus [10] = test: Toxicity in C57BL/6 mouse injected with mouse MC38 cells assessed as change in body weight at 10 mg/kg, po administered once daily for 25 days in combination with anti-mouse-PD1 monoclonal antibody at 5 mg/kg, ip and measured twice a week; type: organism-based, MC-38; details: in vivo, 600 h, time 25 day
[11] = Half life in rat at 2 mg/kg, po; type: ADME, organism-based; details: in vivo
[12] = AUC (0 to t) in dog at 0.5 mg/kg, iv; type: ADME, organism-based, Canis lupus familiaris; set-up: dose 0.5 mg/kg, route iv; details: in vivo
[13] = Drug exposure in plasma of C57BL/6 mouse injected with mouse MC38 cells at 10 mg/kg, po measured 3 hrs post dose on day 25 in combination with anti-mouse PD1 monoclonal antibody at 5 mg/kg, ip by LC/MS analysis; type: ADME, organism-based, MC-38; details: time 25 day
[14] = Volume of distribution in rat at 1 mg/kg, iv; type: ADME, organism-based; details: in vivo
Mus musculus [15] = test: Toxicity in C57BL/6 mouse infected with mouse MC38 cells assessed as change in body weight at 10 mg/kg, po administered once daily for 25 days and measured twice a week; type: organism-based, MC-38; details: in vivo, 600 h, time 25 day
[16] = Drug exposure in plasma of C57BL/6 mouse injected with mouse MC38 cells at 10 mg/kg, po measured 3 hrs post dose on day 25 by LC/MS analysis; type: ADME, organism-based, MC-38; details: time 25 day
[17] = Half life in mouse at 1 mg/kg, iv; type: ADME, organism-based; details: in vivo, iv, 1 mg/kg
MC-38 [18] = test: Antitumor activity against mouse MC38 cells injected C57BL/6 mouse syngenic model assessed as tumor growth inhibition at 10 mg/kg, po administered once daily for 25 days relative to control; type: functional; details: C57BL/6, MC-38, 600 h, time 25 day, read-out: TGI
[19] = Volume of distribution in mouse at 2 mg/kg, po; type: ADME, organism-based; details: in vivo
[20] = AUC (0 to t) in mouse at 2 mg/kg, po; type: ADME, organism-based; set-up: dose 2 mg/kg, route po; details: in vivo
[21] = AUC (0 to t) in rat at 1 mg/kg, iv; type: ADME, organism-based; set-up: dose 1 mg/kg, route iv; details: in vivo
[22] = Cmax in dog at 2 mg/kg, po; type: ADME, organism-based, Canis lupus familiaris; set-up: dose 2 mg/kg, route po; details: in vivo
[23] = Half life in mouse at 2 mg/kg, po; type: ADME, organism-based; details: in vivo
[24] = Volume of distribution in mouse at 1 mg/kg, iv; type: ADME, organism-based; details: in vivo, iv, 1 mg/kg
[25] = Half life in dog at 0.5 mg/kg, iv; type: ADME, organism-based, Canis lupus familiaris; details: in vivo
[26] = Half life in dog at 2 mg/kg, po; type: ADME, organism-based, Canis lupus familiaris; details: in vivo
[27] = Cmax in mouse at 2 mg/kg, po; type: ADME, organism-based; set-up: dose 2 mg/kg, route po; details: in vivo
[28] = Clearance in dog at 0.5 mg/kg, iv; type: ADME, organism-based, Canis lupus familiaris; details: in vivo
[29] = Cmax in rat at 2 mg/kg, po; type: ADME, organism-based; set-up: dose 2 mg/kg, route po; details: in vivo
[30] = Volume of distribution in dog at 2 mg/kg, po; type: ADME, organism-based, Canis lupus familiaris; details: in vivo
[31] = Oral bioavailability in rat; type: ADME, organism-based; details: in vivo
[32] = AUC (0 to t) in dog at 2 mg/kg, po; type: ADME, organism-based, Canis lupus familiaris; set-up: dose 2 mg/kg, route po; details: in vivo
[33] = Oral bioavailability in mouse; type: ADME, organism-based; details: in vivo
[34] = Drug exposure in tumor of C57BL/6 mouse injected with mouse MC38 cells at 10 mg/kg, po measured 3 hrs post dose on day 25 in combination with anti-mouse PD1 monoclonal antibody at 5 mg/kg, ip by LC/MS analysis; type: ADME, organism-based, Neoplasm, MC-38; details: time 25 day, read-out: Drug uptake
[35] = Oral bioavailability in dog; type: ADME, organism-based, Canis lupus familiaris; details: in vivo
[36] = Effects of compound in IL-17 production in CD3/CD28-stimulated C57BL/6 mouse tumor lymphocytes assessed as increase in IL-17 production at 10 mg/kg by ELISA (Rvb= 19 +/- 5 pg/ml); type: functional, Lymphocyte
[37] = Volume of distribution in rat at 2 mg/kg, po; type: ADME, organism-based; details: in vivo
[38] = AUC (0 to t) in rat at 2 mg/kg, po; type: ADME, organism-based; set-up: dose 2 mg/kg, route po; details: in vivo
[39] = Microsomal stability in human liver microsomes assessed as half life; type: ADME, Microsome
[40] = Microsomal stability in rat liver microsomes assessed as half life; type: ADME, Microsome
[41] = target: T1, Nuclear receptor ROR-gamma (Homo sapiens, UniProt P51449); test: Antagonist activity at human RORgamma in cytostim stimulated human PBMC cells assessed as decrease in differentiation of TH17 cells by measuring IL-17 production preincubated with cytostim for 72 hrs by ELISA; type: cell-based
T1 sequence (P51449 whole entry): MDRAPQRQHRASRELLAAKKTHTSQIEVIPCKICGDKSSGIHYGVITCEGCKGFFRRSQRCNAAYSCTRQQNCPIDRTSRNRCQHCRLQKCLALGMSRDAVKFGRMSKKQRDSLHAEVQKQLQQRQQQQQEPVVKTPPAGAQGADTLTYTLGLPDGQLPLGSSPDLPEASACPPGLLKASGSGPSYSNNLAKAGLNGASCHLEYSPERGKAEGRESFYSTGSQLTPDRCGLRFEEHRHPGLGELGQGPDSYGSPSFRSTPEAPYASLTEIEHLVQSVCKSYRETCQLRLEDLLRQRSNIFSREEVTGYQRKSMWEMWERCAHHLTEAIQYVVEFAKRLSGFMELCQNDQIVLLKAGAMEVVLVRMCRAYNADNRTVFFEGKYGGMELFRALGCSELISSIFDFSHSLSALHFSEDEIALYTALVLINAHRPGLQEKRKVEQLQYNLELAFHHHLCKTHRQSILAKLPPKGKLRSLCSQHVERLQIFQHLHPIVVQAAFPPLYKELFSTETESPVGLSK

[42] = target: T2, Nuclear receptor ROR-gamma (Homo sapiens) (UniProt P51449); test: Inverse agonist activity at human RORgamma in cytostim stimulated human PBMC cells assessed as […] in IL-17 production by measuring maximal efficacy preincubated with cytostim for 72 hrs by ELISA relative to control; type: cell-based; details: filed as inverse agonist
T2 sequence (whole entry): T1 sequence (P51449 whole entry)

[43] = target: T1, Nuclear receptor ROR-gamma; test: Antagonist activity at N-terminal GST tagged human RORgamma LBD using fluorescein-D22 as coactivator incubated for 60 mins by Lanthascreen TR-FRET assay

AUC(0-t) [1]: 79800 ng·h/mL
concentration at 600 h [4]: 2020 ng/mL
Vd [5]: 0.654 L/kg
clearance [7]: 16.2 mL/min/kg
half-life [8]: 2.67 h
half-life [11]: 5.96 h
AUC(0-t) [12]: 8640 ng·h/mL
concentration at 600 h [13]: 10800 ng/mL
Vd [14]: 3.65 L/kg
concentration at 600 h [16]: 9120 ng/mL
t1/2 [17]: 5.04 h
Vd [19]: 0.637 L/kg
AUC(0-t) [20]: 50600 ng·h/mL
AUC(0-t) [21]: 1050 ng·h/mL
Cmax [22]: 2080 ng/mL
half-life [23]: 11.2 h
Vd [24]: 0.877 L/kg
half-life [25]: 8.8 h
half-life [26]: 11.8 h
Cmax [27]: 3660 ng/mL
clearance [28]: 0.954 mL/min/kg
Cmax [29]: 55.7 ng/mL
Vd [30]: 0.873 L/kg
bioavailability [31]: 29.4%
AUC(0-t) [32]: 29100 ng·h/mL
bioavailability [33]: 31.7%
concentration at 600 h [34]: 2320 ng/mL
bioavailability [35]: 84.2%
Vd [37]: 25.7 L/kg
AUC(0-t) [38]: 618 ng·h/mL
SMILES: CCS(=O)(=O)c1ccc([C@H](CO)NC(=O)c2ccc3c(c2)cc(Cc2ccc(Cl)cc2C(F)(F)F)n3CCF)cc1
Activity [2]: 1217 pg/mL
Activity [3]: 2455 pg/mL
Activity [6]: 81 pg/mL
inhibition in vivo at 10 mg/kg (MC-38 [9]): 62%
Activity (Mus musculus [10]): Non-Toxic
Activity (Mus musculus [15]): Non-Toxic
inhibition in vivo at 10 mg/kg (MC-38 [18]): 37%
Activity [36]: 36 pg/mL

half-life [39]: 0.217 h
half-life [40]: 0.2 h
SMILES: CCS(=O)(=O)c1ccc(CNC(=O)c2ccc3c(c2)cc(Cc2ccccc2OC)n3C(C)C)cc1

half-life [39]: 0.333 h
EC50 [41]: 19 nM
Emax [42]: 93%
EC50 [43]: 10 nM
half-life [40]: 0.317 h
SMILES: CCS(=O)(=O)c1ccc(CNC(=O)c2ccc3c(c2)cc(Cc2cccc(C(F)(F)F)c2)n3C(C)C)cc1

EC50 [43]: 44 nM
SMILES: CCS(=O)(=O)c1ccc(CNC(=O)c2ccc3c(c2)cc(Cc2ccccc2C)n3C(C)C)cc1
